We go through eleven molecules from patent publication US20100048923A1, “ATR Inhibitor” (priority 2005, published 2010).

The target of one assay is T1, ATR (Homo sapiens, UniProt Q13535).
T1 construct: made in house; host or cells: 293T cells (ATCC: CRL-11268), transient transfection of pcDNA3.1 plasmid, anti-Flag M2 immunoprecipitate
Kind of assay: ATR protein kinase activity (Flag-ATR immunoprecipitate, PHAS-I substrate, 32P-ATP). The class given is biochemical. The settings on record: 300 μM ATP, 20 minutes at 30° C., estimated from lines, read-out: IC50 for the phosphorylating activity of ATR. The method, then: 1 μg of recombinant PHAS-I protein (Alexis Biochemicals) as a substrate, and Schizandrin B were added to mixtures of ATR and ATM for the kinase reaction as prepared in accordance with a Preparation of mixtures of ATR and ATM for kinase reaction as follows. 300 μM of ATP containing a suitable concentration of ^32P-ATP was added to react it for 20 minutes at 30° C. 4 volumes of SDS sample loading buffer (200 mM Tris-HCl (pH 6.8), 400 mM DTT and 8% SDS) were added to the reaction mixture to stop the reaction, and the obtained mixture is applied to 12% SDS-PAGE. After the gel as obtained was dried, […] corresponding to the band of ^32P—PHAS-I in the mixture was evaluated using autoradiography method. In the Figure, (A) and (B) indicate the relative activities of ATR and ATM, respectively, the horizontal axis indicates the concentration of Schizandrin B, and the vertical axis indicates the relative value of the count as obtained in Schizandrin B-treated group to that of no-addition of Schizandrin B group.
IC50s of the compounds for the phosphorylating activity of ATR were estimated based on the lines as obtained in accordance with Embodiment 7-1, except that, in Embodiment 7-1, the compounds of the Formulas (1) to (5) and the compound of the Formula (C) were used instead of Schizandrin B. The values are shown in Table 3.
ATR conjugated with Flag as constructed with conventional method as disclosed in, e.g. Non-Patent-Related Document 9 was used for a mixture of ATR for kinase reaction. In detail, Bam H1H-Swa I fragment of ATR gene (Sequence Number 4) (1 kb) was substituted with a gene having the ATR gene and Flag ([…]) at N terminal and the gene was amplified with PCR. So obtained gene product was introduced into pcDNA3.1, and target product was obtained from the plasmid. In addition, ATM conjugated with Flag as manufactured in accordance with the well-known method as disclosed in e.g. non-patent related documents 10 and 11 and using Quikchange site-Directed Mutagenesis Kit (Stratagene) was used for a mixture of ATM for kinase reaction.
These ATR and ATM plasmids tagged with Flag (Sequence Numbers 4 and 5) were transfected in 293T cells (ATCC: CRL-11268) by Calcium phosphate method as followed. After 2 days, 5 mg of cellular proteins were prepared using IP buffer in accordance with the Preparation of proteins as mentioned below instead of the UTB buffer, and ATR and ATM were immuno-precipitated with 20 μg of anti-Flag M2 monoclonal antibody (Sigma) for 4 hours at […], independently. The precipitates were incubated with beads conjugated with protein G cepharose (Amersham). […]

For the next assay, the system named is A549 cells. As to the kind of experiment: G2/M checkpoint: cells containing phosphorylated histone H3 (flow cytometry) in UV-irradiated A549 cells. In kind it is cell-based. The settings on record: 30 μM compound, 20 J/m^2 UV, ratio of G2/M (phospho-histone H3) cells to total, Control 1.88, UV irradiation alone 0.52. As for the experimental part:
A549 cells were seeded as 3×10^4 cells/cm^2 in the growth medium on 10 cm dish and incubated for overnight. Then, Schizandrin B was added to the medium as final concentration of 30 μM. At 1 hour after the addition of Schizandrin B, the medium was removed, and were irradiated with 20 J/m^2 and 50 J/m^2 of UV. After the UV irradiation, and then the cells were incubated in the Schizandrin B-containing medium having the same concentration as mentioned above for 1 hour. Then, the percentage of the cells containing phosphorylated histone H3 were measured in accordance with a Measurement of the phosphorylated histone H3 as mentioned below. The FIG. 2(A) is a result of flowcytometry as obtained in the treatment with Schizandrin B. In the FIG. 2(A), the encircled portion indicates the cell group in G2/M phase, numbers as mentioned above the portion indicates the ratio of the cells in G2/M phase to the total number of cells. In addition, the FIG. 2(B) indicates a graph showing the ratio.
Ratios of the cells in G2/M phase to the total number of cells were obtained in accordance with the Embodiment 2-1, except that, in the Embodiment 2-1, 20 J/m^2 of UV were irradiated instead of 20 J/m^2 and 50 J/m^2 of UV and the compounds of the formulas (1) to (10) and Angeloyl Gomisin A of a formula (C) (final concentration of 30 μM) as mentioned below were used instead of the final concentration of 30 μM of Schizandrin B. The result is shown in Table 1.
The cells were harvested and fixed with 70% ice-cooled ethanol after the washing with PBS. PBS containing 0.25% Triton X-100 was added, and the cells were stood on ice for 30 minutes. Cells were centrifuged (500×g, 5 minutes) and replaced to PBS containing 1% bovine serum albumin (BSA) and 1 μg of […] (specifically binding to the phosphorylated histone H3 at 13 Serine), and incubated for 4 hours at room temperature.
After the subsequent washes with PBS containing 1% BSA, goat anti-rabbit IgG antibody conjugated with FITC which diluted with 100 times with PBS containing 1% BSA was added, and incubated for 30 minutes at dark place. These cells were counterstained with PI in accordance with the FACS analysis as mentioned below. The percentage of cells containing phosphorylated histone H3 was measured and evaluated with flowcytometry (Beckman-Coulter).
In general terms: Flow cytometry measures light scatter and fluorescence of single cells or particles in a stream.

Assay [1] relates to P-p53 (Ser15) in A549 cells. Kind of assay: Phosphorylation of p53 at serine 15 in UV-irradiated A549 cells (immunoblot). In kind it is cell-based. The settings on record: Homo sapiens, light or radiation study, 3 h, 30 μM compound, 25 J/m^2 UV, UV irradiation alone = 100%, Control 15.4, read-out: Relative rate of P-p53 (Ser15) band intensity. The method, then: A549 cells were seeded as 3×10^4 cells/cm^2 in the growth medium on 10 cm dish, incubated for overnight, and Schizandrin B was added in the medium as final concentration of 30 μM in the medium. After 1 hour incubation, the medium was removed, irradiated with 20 J/m^2 of UV, and incubated for 3 hours (hereinafter, referred to as “UV-cell group” with regard to the obtained cells).
It should be noted that both groups of the UV-cell group and IR-cell group were cultured in the presence of 50 μM of N-acetyl-L-Leucyl-L-Leucyl-L-norleucinal (Sigma, Mo., USA) (hereinafter, referred to as “LLnL”) from 15 minutes prior to the irradiation to collection of the cells as mentioned below. Protein in the cells were extracted in accordance with a Preparation of proteins as mentioned below, immunoblot analysis was performed with regard to the phosphorylated p53 at 15 serine (P-p53 (Ser 15)), p53 protein (p53), phosphorylated ATM protein at 1981 serine (P-ATM (Ser1981)) and glyceraldehyde-3-phosphate dehydrogenase (GAPDH) in accordance with an Immunoblot analysis as mentioned below.
The dose-depended effect of Schizandrin B on the phosphorylation of p53 in A549 cells irradiated with UV A549 cells were seeded as 3×10^4 cells/cm^2 in the growth medium on 10 cm dish, incubated for overnight, and Schizandrin B was added in the medium as final concentration of 10, 30 and 100 μM in the medium. After 1 hour incubation, the medium was removed, and the cells were irradiated with 20 J/m^2 of UV. The cells were treated with LLnL as mentioned in Embodiment 4. Then, expression of p53 and phosphorylated p53 at 15 serine (P-p53 (Ser15)) in the cells treated with the same concentration of Schizandrin B as mentioned above was examined.
Expression of phosphorylated p53 at 15 serine (P-p53 (Ser15)) was examined in accordance with Embodiment 5-1, except that, in Embodiment 5-1, compounds of the Formulas (1) to (10) and the compound of the Formula (C) (final concentration of 30 μM) were added in the medium instead of the addition of final concentration of 10, 30 and 100 μM of Schizandrin B in the medium, and 25 J/m^2 of UV was irradiated instead of the 20 J/m^2 of UV irradiation. Electrophoresis image as obtained is shown in FIG. 5-2, and relative ratio of the band intensity corresponding to P-p53 (Ser15) to that of the band as obtained in the irradiation with UV as 100% is shown in Table 2.
50 μg of cellular proteins (as prepared in accordance with the Preparation of proteins as mentioned below) were applied to SDS polyacrylamide gel electrophoresis (12.5%), the electrophored proteins were transferred into the nitrocellulose membrane in accordance with the standard method, and blocking reaction was performed for 1 hour at room temperature using Tris-buffered saline (TBS-T) containing 5% skim milk and 0.1% Triton X-100. So obtained membrane were incubated with the desired adequate antibodies as mentioned below for 16 hours at 4° C., and then incubated with secondary anti-serum (corresponding to the animal originated from the desired antibodies) conjugated with horseradish peroxidase for 1 hour at room temperature. Then, the target proteins were visualized with ECL reaction kit (Amersham) and chemiluminescence film (Amersham) to obtain a protein image.
The cells were harvested with ice-cooled PBS from the culture dish, and were washed twice with cooled PBS. Then, it was centrifuged to obtain cell pellet. The pellet was solubilized with UTB buffer as mentioned below to prepare cellular protein. The content of the proteins was measured with Protein Assay kit (Bio-Rad).
For orientation: Immunoblotting shows a protein as a band on a membrane.

The next assay concerns the target T2, ATM (Homo sapiens, UniProt Q13315).
T2 construct: made in house; host or cells: 293T cells (ATCC: CRL-11268), transient transfection, anti-Flag M2 immunoprecipitate
The settings on record: caffeine, literature; cited from earlier work.

T1 sequence (Q13535 whole entry A92R): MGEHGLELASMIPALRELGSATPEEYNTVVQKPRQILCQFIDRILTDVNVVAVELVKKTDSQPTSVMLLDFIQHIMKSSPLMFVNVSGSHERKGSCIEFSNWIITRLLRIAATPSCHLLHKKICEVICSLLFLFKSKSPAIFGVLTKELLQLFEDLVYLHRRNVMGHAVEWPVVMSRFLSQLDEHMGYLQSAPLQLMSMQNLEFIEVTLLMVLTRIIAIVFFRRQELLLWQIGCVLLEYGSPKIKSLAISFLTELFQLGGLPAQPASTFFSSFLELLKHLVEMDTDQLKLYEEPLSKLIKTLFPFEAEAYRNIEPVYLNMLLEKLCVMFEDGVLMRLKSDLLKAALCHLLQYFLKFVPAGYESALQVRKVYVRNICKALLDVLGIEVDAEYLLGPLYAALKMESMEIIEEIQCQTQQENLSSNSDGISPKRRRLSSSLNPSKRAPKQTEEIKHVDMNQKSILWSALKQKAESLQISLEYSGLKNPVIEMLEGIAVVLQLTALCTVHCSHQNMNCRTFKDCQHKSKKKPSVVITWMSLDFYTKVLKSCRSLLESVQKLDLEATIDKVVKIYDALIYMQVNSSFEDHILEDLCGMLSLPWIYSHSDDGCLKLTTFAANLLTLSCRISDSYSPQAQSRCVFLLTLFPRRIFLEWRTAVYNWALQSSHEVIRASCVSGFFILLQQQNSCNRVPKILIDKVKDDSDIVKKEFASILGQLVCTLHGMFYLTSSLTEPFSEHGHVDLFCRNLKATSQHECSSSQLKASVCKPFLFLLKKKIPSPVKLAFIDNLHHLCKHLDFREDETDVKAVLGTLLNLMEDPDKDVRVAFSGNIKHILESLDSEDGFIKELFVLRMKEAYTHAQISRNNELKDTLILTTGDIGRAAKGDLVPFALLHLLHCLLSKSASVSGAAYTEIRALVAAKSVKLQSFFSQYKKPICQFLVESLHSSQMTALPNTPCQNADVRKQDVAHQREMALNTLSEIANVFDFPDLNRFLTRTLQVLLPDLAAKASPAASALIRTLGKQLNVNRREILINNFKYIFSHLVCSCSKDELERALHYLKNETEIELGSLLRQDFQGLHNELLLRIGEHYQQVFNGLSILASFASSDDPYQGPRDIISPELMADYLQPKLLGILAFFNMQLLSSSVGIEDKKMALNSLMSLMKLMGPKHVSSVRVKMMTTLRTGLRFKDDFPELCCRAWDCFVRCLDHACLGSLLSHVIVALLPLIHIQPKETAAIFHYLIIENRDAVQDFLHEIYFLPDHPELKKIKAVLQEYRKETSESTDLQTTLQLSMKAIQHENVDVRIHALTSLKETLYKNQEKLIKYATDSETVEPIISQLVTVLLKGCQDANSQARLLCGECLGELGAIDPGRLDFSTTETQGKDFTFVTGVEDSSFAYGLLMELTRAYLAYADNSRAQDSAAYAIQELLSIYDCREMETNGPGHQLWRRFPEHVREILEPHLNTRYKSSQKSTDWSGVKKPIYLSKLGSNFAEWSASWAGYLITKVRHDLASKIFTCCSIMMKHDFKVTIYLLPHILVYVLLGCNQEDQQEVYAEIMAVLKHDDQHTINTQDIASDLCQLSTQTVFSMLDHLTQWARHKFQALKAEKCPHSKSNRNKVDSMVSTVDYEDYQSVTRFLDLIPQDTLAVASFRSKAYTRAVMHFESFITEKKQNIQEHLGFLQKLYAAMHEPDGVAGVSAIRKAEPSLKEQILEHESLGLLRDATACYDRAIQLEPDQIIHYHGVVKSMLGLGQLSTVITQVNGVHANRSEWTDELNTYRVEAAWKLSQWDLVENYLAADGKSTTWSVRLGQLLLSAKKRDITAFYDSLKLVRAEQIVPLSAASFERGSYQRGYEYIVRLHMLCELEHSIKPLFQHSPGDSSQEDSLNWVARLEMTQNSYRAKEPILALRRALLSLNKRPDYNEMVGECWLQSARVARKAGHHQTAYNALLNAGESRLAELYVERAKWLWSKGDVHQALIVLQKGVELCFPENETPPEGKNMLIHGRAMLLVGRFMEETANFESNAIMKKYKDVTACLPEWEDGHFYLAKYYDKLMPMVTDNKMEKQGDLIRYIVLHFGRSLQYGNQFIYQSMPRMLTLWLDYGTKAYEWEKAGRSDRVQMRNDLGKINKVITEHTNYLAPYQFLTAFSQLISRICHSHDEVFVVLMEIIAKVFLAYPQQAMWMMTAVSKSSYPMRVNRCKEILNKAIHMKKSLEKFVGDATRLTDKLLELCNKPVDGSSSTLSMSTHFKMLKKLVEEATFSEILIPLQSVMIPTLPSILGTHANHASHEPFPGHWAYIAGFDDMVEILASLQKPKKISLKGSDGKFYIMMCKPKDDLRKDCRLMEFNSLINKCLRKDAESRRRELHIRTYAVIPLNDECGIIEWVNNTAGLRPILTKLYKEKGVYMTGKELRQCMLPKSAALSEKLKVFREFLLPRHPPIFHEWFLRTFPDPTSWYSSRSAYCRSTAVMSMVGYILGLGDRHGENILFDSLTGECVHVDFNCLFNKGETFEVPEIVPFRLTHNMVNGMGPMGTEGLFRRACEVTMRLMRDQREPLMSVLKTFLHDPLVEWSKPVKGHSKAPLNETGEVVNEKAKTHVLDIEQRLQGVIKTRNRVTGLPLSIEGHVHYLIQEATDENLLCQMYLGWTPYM

By IC50 is commonly meant the concentration at which inhibition is half-maximal. `C/C=C(\C)C(=O)O[C@@]1(C)Cc2cc(OC)c(OC)c(OC)c2-c2c(cc3c(c2OC)OCO3)C[C@@H]1C` (atropisomer, axis not shown) [AGA, Angeloyl Gomisin A, reference compound]: the IC50 on ATR is 111 µM. In addition, the “Rate of Divided cells” value in the assay on A549 cells stood at 1.04 ± 0.06%. In addition, the activity at 30 µM in assay [1] came out at 92.2%.

Regarding `COc1cc2c(c(OC)c1OC)-c1c(cc3c(c1OC)OCO3)C[C@H](C)[C@@](C)(O)C2` (atropisomer, axis not shown) [GA, Gomisin A], in the assay on A549 cells, the “Rate of Divided cells” value is reported as 0.90 ± 0.07%. Moreover, in assay [1], the activity at 30 µM worked out at 58.3%.

`C/C=C(/C)C(=O)O[C@H]1c2cc(OC)c(OC)c(OC)c2-c2c(cc3c(c2OC)OCO3)C[C@H](C)[C@@]1(C)O` (atropisomer, axis not shown) [GB, Gomisin B]: the “Rate of Divided cells” value in the assay with A549 cells is 0.85 ± 0.12%. In addition, the activity at 30 µM in assay [1] was 60.9%.

For the molecule `COc1cc2c(c(OC)c1OC)-c1c(cc3c(c1OC)OCO3)C[C@H](C)[C@@](C)(O)[C@H]2OC(=O)c1ccccc1` (atropisomer, axis not shown) [GC, Gomisin C], at ATR, the IC50 was 10.6 µM.

Turning to `COc1cc2c(c(OC)c1OC)-c1c(cc3c(c1OC)OCO3)C[C@H](C)[C@](C)(O)[C@H]2OC(=O)c1ccccc1` (atropisomer, axis not shown) [GC, Gomisin C], the “Rate of Divided cells” value in the assay on A549 cells stood at 1.16 ± 0.16%. Further, the activity at 30 µM in assay [1] was determined as 49.8%.

Take `COc1cc2c(c(OC)c1OC)-c1c(cc3c(c1OC)OCO3)[C@H](OC(=O)c1ccccc1)[C@](C)(O)[C@@H](C)C2` (atropisomer, axis not shown) [GG, Gomisin G]: at ATR, the IC50 was 32 µM. In addition, the “Rate of Divided cells” value with A549 cells was 1.13 ± 0.05%. In assay [1], the activity at 30 µM worked out at 51.3%.

On to `COc1cc2c(c(O)c1OC)-c1c(cc(OC)c(OC)c1OC)C[C@](C)(O)[C@@H](C)C2` (atropisomer, axis not shown) [GH, Gomisin H], for which the 50% inhibitory concentration (IC50) at ATR is 45.7 µM. The “Rate of Divided cells” value in the assay on A549 cells is 1.42 ± 0.03%. Also, the activity at 30 µM in assay [1] came to 50.3%.

`COc1cc2c(c(OC)c1OC)-c1c(cc3c(c1OC)OCO3)C[C@@H](C)[C@@H](C)C2` (atropisomer, axis not shown) [GN, Gomisin N]: the “Rate of Divided cells” value in the assay on A549 cells was 0.88 ± 0.12%. Also, in assay [1], the activity at 30 µM was 38.4%.

`COc1cc2c(c(OC)c1OC)-c1c(cc(OC)c(OC)c1OC)C[C@](C)(O)[C@@H](C)C2` (atropisomer, axis not shown) [S, Schizandrin]: the “Rate of Divided cells” value in the assay on A549 cells is reported as 0.68 ± 0.04%. The activity at 30 µM in assay [1] is 42.7%.

For the molecule `COc1c2c(cc3c1-c1c(cc4c(c1OC)OCO4)C[C@H](C)[C@H](C)C3)OCO2` (atropisomer, axis not shown) [SchC, Schizandrin C], the “Rate of Divided cells” value with A549 cells is given as 0.68 ± 0.11%. The activity at 30 µM in assay [1] was determined as 42.6%.

In the case of `Cn1c(=O)c2c(ncn2C)n(C)c1=O` [Caffeine, 3,7-dihydro-1,3,7-trimethyl-1H-purine-2,6-dione], on ATM, the “IC50 for ATM relative to that of ATR” value is listed as “⅕”.
